Assay results as given in the NIST ThermoML archive (doi:10.1021/je900974u).

Experiments:
[1] = Crystal
[2] = molar heat capacity at constant pressure; details: 101.33 kPa, Liquid, Vacuum adiabatic calorimetry
[3] = Molar enthalpy of transition or fusion; details: Crystal; Adiabatic calorimetry

CCCCCCCCCCCCCCn1cc[n+](C)c1.O=S(=O)([N-]S(=O)(=O)C(F)(F)F)C(F)(F)F
Details	Molar enthalpy of transition or fusion [kJ/mol]	Triple point temperature [K]
[1]	–	308.72
[3]	39.9	–

[2]
Details	molar heat capacity at constant pressure [J/K/mol]
309.98 K	896.3
310.38 K	898
311.13 K	898.7
312.28 K	899.5
312.7 K	900.9
313.43 K	900.5
314.58 K	902.3
315.01 K	903.4
315.73 K	903.4
316.88 K	904.2
317.32 K	905.3
318.04 K	904
319.19 K	906.1
319.63 K	907.1
320.34 K	907.5
321.49 K	908.6
321.94 K	909.6
322.64 K	909.2
323.79 K	910.6
324.94 K	913.1
326.1 K	913.5
327.25 K	914.4
328.4 K	915.1
329.55 K	915.9
330.69 K	918.6
331.84 K	918.3
332.99 K	919.1
334.14 K	920.6
335.29 K	922.4
336.45 K	923
337.6 K	924.6
338.75 K	925.5
339.89 K	926.2
341.04 K	927.4
342.19 K	927.9
343.33 K	929.9
344.48 K	930.4
345.62 K	931.8
346.77 K	933.1
347.91 K	933.9
349.06 K	935.2
350.2 K	936.7
351.91 K	939.3
354.21 K	941.3
356.51 K	943.4
358.83 K	945.8
361.14 K	947.9
363.45 K	949.8
365.76 K	951.8
368.07 K	953.3
